Measurements: paper PMC9395446, “First-in-human phase 1/1b study to evaluate sitravatinib in patients with advanced solid tumors” (Investigational New Drugs, 2022)

Assay: Safety in phase 1/1b study (DLTs, TRAEs, TEAEs; CTCAE v4.03)
Assay type: in vivo, human
Description: Safety assessments included evaluation of DLTs, AEs, physical examinations, vital sign measurements, electrocardiogram recordings and laboratory tests.
A DLT was defined as a grade ≥ 4 hematologic abnormality lasting ≥ 4 days; grade 3 thrombocytopenia with clinically significant bleeding; febrile neutropenia; clinically significant grade ≥ 3 non-hematologic AEs not related to underlying malignancy; intolerable grade 2 AEs; or toxicity resulting in an inability to deliver 80% of the dose during the first treatment cycle.
The safety population included all patients who received ≥ 1 dose of sitravatinib. […] The PK evaluable population included all patients with sufficient concentration-time data for PK parameter evaluation. The modified intent-to-treat (mITT) population included all phase 1b patients who received ≥ 1 dose of study drug.

SMILES: COCCNCc1ccc(-c2cc3nccc(Oc4ccc(NC(=O)C5(C(=O)Nc6ccc(F)cc6)CC5)cc4F)c3s2)nc1 [sitravatinib, Sitravatinib]
- Hyponatremia TEAE, grade ≥3 (120 mg phase 1b): 3 (4.8) n (%)
- Hypophosphatemia TEAE, any grade (120 mg phase 1b): 3 (4.8) n (%)
- Hypophosphatemia TEAE, grade ≥3 (120 mg phase 1b): 1 (1.6) n (%)
- Hypothyroidism TEAE, any grade (120 mg phase 1b): 19 (30.6) n (%)
- Hypothyroidism TRAE, any grade (120 mg phase 1b): 14 (22.6) n (%)
- Hypothyroidism TRAE, grade ≥3 (120 mg phase 1b): 0 n (%)
- Infections and infestations TEAE, any grade (120 mg phase 1b): 18 (29.0) n (%)
- Infections and infestations TEAE, grade ≥3 (120 mg phase 1b): 7 (11.3) n (%)
- Injury, poisoning, procedural complications TEAE, any grade (120 mg phase 1b): 11 (17.7) n (%)
- Injury, poisoning, procedural complications TEAE, grade ≥3 (120 mg phase 1b): 0 n (%)
- Investigations TEAE, any grade (120 mg phase 1b): 34 (54.8) n (%)
- Investigations TEAE, grade ≥3 (120 mg phase 1b): 7 (11.3) n (%)
- Lipase increased TEAE, any grade (120 mg phase 1b): 8 (12.9) n (%)
- Lipase increased TEAE, grade ≥3 (120 mg phase 1b): 3 (4.8) n (%)
- Metabolism and nutrition disorders TEAE, any grade (120 mg phase 1b): 38 (61.3) n (%)
- Metabolism and nutrition disorders TEAE, grade ≥3 (120 mg phase 1b): 11 (17.7) n (%)
- Musculoskeletal and connective tissue disorders TEAE, any grade (120 mg phase 1b): 28 (45.2) n (%)
- Musculoskeletal and connective tissue disorders TEAE, grade ≥3 (120 mg phase 1b): 2 (3.2) n (%)
- Nausea TEAE, any grade (120 mg phase 1b): 19 (30.6) n (%)
- Nausea TEAE, grade ≥3 (120 mg phase 1b): 0 n (%)
- Nausea TRAE, any grade (120 mg phase 1b): 14 (22.6) n (%)
- Nausea TRAE, grade ≥3 (120 mg phase 1b): 0 n (%)
- Neoplasms benign, malignant, unspecified TEAE, any grade (120 mg phase 1b): 11 (17.7) n (%)
- Neoplasms benign, malignant, unspecified TEAE, grade ≥3 (120 mg phase 1b): 8 (12.9) n (%)
- Nervous system disorders TEAE, any grade (120 mg phase 1b): 28 (45.2) n (%)
- Nervous system disorders TEAE, grade ≥3 (120 mg phase 1b): 3 (4.8) n (%)
- PPE syndrome TEAE, any grade (120 mg phase 1b): 14 (22.6) n (%)
- PPE syndrome TEAE, grade ≥3 (120 mg phase 1b): 6 (9.7) n (%)
- PPE syndrome TRAE, any grade (120 mg phase 1b): 13 (21.0) n (%)
- PPE syndrome TRAE, grade ≥3 (120 mg phase 1b): 6 (9.7) n (%)
- Pain in extremity TEAE, any grade (120 mg phase 1b): 4 (6.5) n (%)
- Pain in extremity TEAE, grade ≥3 (120 mg phase 1b): 0 n (%)
- Proteinuria TEAE, any grade (120 mg phase 1b): 13 (21.0) n (%)
- Proteinuria TEAE, grade ≥3 (120 mg phase 1b): 2 (3.2) n (%)
- Proteinuria TRAE, any grade (120 mg phase 1b): 11 (17.7) n (%)
- Proteinuria TRAE, grade ≥3 (120 mg phase 1b): 2 (3.2) n (%)
- Psychiatric disorders TEAE, any grade (120 mg phase 1b): 7 (11.3) n (%)
- Psychiatric disorders TEAE, grade ≥3 (120 mg phase 1b): 2 (3.2) n (%)
- Rash TEAE, any grade (120 mg phase 1b): 9 (14.5) n (%)
- Rash TEAE, grade ≥3 (120 mg phase 1b): 2 (3.2) n (%)
- Rash TRAE, any grade (120 mg phase 1b): 6 (9.7) n (%)
- Rash TRAE, grade ≥3 (120 mg phase 1b): 2 (3.2) n (%)
- Renal and urinary disorders TEAE, any grade (120 mg phase 1b): 19 (30.6) n (%)
- Renal and urinary disorders TEAE, grade ≥3 (120 mg phase 1b): 5 (8.1) n (%)
- Respiratory, thoracic and mediastinal disorders TEAE, any grade (120 mg phase 1b): 34 (54.8) n (%)
- Respiratory, thoracic and mediastinal disorders TEAE, grade ≥3 (120 mg phase 1b): 3 (4.8) n (%)
- Serious TEAE (120 mg phase 1b): 21 (33.9) n (%)
- Serious TRAE (120 mg phase 1b): 5 (8.1) n (%)
- Skin and subcutaneous tissue disorders TEAE, any grade (120 mg phase 1b): 33 (53.2) n (%)
- Skin and subcutaneous tissue disorders TEAE, grade ≥3 (120 mg phase 1b): 8 (12.9) n (%)
- Stomatitis TEAE, any grade (120 mg phase 1b): 11 (17.7) n (%)
- Stomatitis TEAE, grade ≥3 (120 mg phase 1b): 1 (1.6) n (%)
- Stomatitis TRAE, any grade (120 mg phase 1b): 11 (17.7) n (%)
- Stomatitis TRAE, grade ≥3 (120 mg phase 1b): 1 (1.6) n (%)
- TEAE grade ≥3 (120 mg phase 1b): 45 (72.6) n (%)
- TEAE leading to death (120 mg phase 1b): 8 (12.9) n (%)
- TEAE leading to discontinuation (120 mg phase 1b): 12 (19.4) n (%)
- TEAE leading to treatment modification (120 mg phase 1b): 46 (74.2) n (%)
- TRAE grade ≥3 (120 mg phase 1b): 32 (51.6) n (%)
- TRAE leading to death (120 mg phase 1b): 0 n (%)
- TRAE leading to discontinuation (120 mg phase 1b): 7 (11.3) n (%)
- TRAE leading to treatment modification (120 mg phase 1b): 42 (67.7) n (%)
- UTI TEAE, any grade (120 mg phase 1b): 6 (9.7) n (%)
- UTI TEAE, grade ≥3 (120 mg phase 1b): 1 (1.6) n (%)
- Vascular disorders TEAE, any grade (120 mg phase 1b): 32 (51.6) n (%)
- Vascular disorders TEAE, grade ≥3 (120 mg phase 1b): 12 (19.4) 12 (19.4) n (%)
- Vomiting TEAE, any grade (120 mg phase 1b): 12 (19.4) n (%)
- Vomiting TEAE, grade ≥3 (120 mg phase 1b): 0 n (%)
- Vomiting TRAE, any grade (120 mg phase 1b): 9 (14.5) n (%)
- Vomiting TRAE, grade ≥3 (120 mg phase 1b): 0 n (%)
- Weight decreased TEAE, any grade (120 mg phase 1b): 10 (16.1) n (%)
- Weight decreased TEAE, grade ≥3 (120 mg phase 1b): 0 n (%)
- Weight decreased TRAE, any grade (120 mg phase 1b): 7 (11.3) n (%)
- Weight decreased TRAE, grade ≥3 (120 mg phase 1b): 0 n (%)
- Patients discontinued due to TRAEs (150 mg): 17.2%
- Patients with grade ≥ 3 TRAEs (150 mg arm): 61.6%
- Patients with serious TRAEs (150 mg arm): 22.2%
- ALT increased TEAE, any grade (150 mg phase 1b): 25 (25.3) n (%)
- ALT increased TEAE, grade ≥3 (150 mg phase 1b): 3 (3.0) n (%)
